In patent publication US12110494B2, “Method for biologically producing sugar alcohol from agar” (Korea University Research and Business Foundation, priority 2018, dated 2024):

Legend:
D452-2-L12 [1] = experiment: Intracellular AB uptake by LAC12 in minimal medium; format: cell-based, S. cerevisiae; settings: minimal medium (Verduyn), without carbon source, FIG. 4A
Protocol: To confirm the possibility that, […], AB is consumed together or AB is uptaken into the cell by producing energy from the carbon source, […], and then AB consumption experiments were performed for D452-2-L12 and parent D452-2 as a control. […]

[2] = Thermal stability (degree of denaturation over time); format: physicochemical; settings: at 4, 25, 50, and 70° C., FIGS. 11A-11D
Protocol: To confirm whether L-AHGol and L-ABol, which were produced by fermentation and separated by size exclusion chromatography, are actually stable against heat, L-AHG and AB were experimentally compared. The experiment was performed by measuring the degree of denaturation of each substance over time at 4, 25, 50, and 70° C.

[3] = molecular target: T1, AR expressed by a GRE3 gene derived from S. cerevisiae (Saccharomyces cerevisiae, UniProt P38715); experiment: Reduction of L-AHG and AB by AR (NADPH decrease at 340 nm); format: biochemical; settings: substrate 2 mM, 1 mM NADPH, pH 6.0 sodium phosphate buffer, 30° C., FIG. 3B
T1 construct: A target gene GRE3 was amplified from the genomic DNA by PCR; His6 (C); made in house
T1 sequence (P38715 1-327): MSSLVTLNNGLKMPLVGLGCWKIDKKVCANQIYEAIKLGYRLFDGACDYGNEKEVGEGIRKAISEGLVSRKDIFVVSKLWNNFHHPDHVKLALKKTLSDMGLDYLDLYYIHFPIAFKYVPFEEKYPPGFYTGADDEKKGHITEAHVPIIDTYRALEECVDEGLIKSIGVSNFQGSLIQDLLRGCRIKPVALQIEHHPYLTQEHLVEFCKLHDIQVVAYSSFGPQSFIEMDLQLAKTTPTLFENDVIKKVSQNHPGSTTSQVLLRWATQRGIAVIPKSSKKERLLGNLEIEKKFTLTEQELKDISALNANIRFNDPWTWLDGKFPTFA
Protocol: An enzymatic reaction was performed in a pH 6.0 sodium phosphate buffer at 30° C. 1 mM NADPH was used as a cofactor, and each substrate was allowed to react at 2 mM and a protein concentration of 9.36 nmol.

[4] = molecular target: T2, β-galactosidase expressed by LAC4 (Kluyveromyces lactis, UniProt P00723); experiment: AB hydrolysis by LAC4 in coenzyme obtained from lysed cells; format: biochemical, K. lactis; settings: substrate 2 g/L
T2 construct: expressed in transfected cells; host or cells: Saccharomyces cerevisiae D452-2-L124 (crude lysate supernatant)
T2 sequence (P00723 whole entry): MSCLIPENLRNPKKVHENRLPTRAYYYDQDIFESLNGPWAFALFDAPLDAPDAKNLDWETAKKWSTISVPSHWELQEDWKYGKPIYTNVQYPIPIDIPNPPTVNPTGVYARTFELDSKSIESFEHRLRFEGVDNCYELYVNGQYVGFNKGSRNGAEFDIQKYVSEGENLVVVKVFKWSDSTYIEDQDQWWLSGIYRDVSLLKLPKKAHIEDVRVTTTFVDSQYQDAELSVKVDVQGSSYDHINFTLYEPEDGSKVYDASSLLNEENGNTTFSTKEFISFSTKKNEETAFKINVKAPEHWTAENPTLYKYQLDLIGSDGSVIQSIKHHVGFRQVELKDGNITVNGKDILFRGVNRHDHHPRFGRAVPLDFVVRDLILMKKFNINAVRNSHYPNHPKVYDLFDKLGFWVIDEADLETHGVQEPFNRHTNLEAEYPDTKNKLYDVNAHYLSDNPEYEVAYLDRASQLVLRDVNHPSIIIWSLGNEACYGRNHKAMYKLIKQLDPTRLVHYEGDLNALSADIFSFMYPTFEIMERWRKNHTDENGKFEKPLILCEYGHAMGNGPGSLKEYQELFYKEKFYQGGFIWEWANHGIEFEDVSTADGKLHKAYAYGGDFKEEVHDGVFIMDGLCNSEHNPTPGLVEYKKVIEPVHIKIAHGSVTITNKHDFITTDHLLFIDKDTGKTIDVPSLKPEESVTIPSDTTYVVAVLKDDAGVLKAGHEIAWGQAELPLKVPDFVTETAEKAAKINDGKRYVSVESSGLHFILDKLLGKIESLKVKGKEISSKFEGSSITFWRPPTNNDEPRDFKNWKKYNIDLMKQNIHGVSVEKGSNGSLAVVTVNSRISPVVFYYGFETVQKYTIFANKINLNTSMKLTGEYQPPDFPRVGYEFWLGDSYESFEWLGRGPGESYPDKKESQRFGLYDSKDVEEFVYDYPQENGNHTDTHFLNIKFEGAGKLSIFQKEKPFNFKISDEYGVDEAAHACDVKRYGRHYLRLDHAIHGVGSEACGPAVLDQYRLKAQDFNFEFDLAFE
Protocol: The AB hydrolysis ability of LAC4 was examined for the constructed strain D452-2-L124 and controls D452-2-L12 and parent D452-2. Since a method of verifying AB hydrolysis is to verify the enzymatic reaction in the cell, a protein, that is, a coenzyme, obtained by growth, collection, and lysis of each cell was used to measure the AB hydrolysis ability. More specifically, each strain was allowed to grow in a YP medium, which is a nutrient broth containing 20 g/L of glucose, at 30° C. and centrifuged in the mid-exponential growth phase at 3,000 g for 10 minutes to collect cells. The collected cells were released with a 20 mM Tris-HCl (pH 7.4) buffer and then lyzed using a sonicator. The lyzed cells were centrifuged at 4° C. and 10,000 g for 10 minutes. The resultant was analyzed by BCA protein concentration quantification to measure the concentration of a coenzyme.
Enzymatic reaction conditions for AB hydrolysis by LAC4 were as follows. AB and lactose as a positive control were used as substrates in the experiment. Each substrate with a concentration of 2 g/L and a coenzyme at 0.5 g/L were reacted in a sodium acetate (pH 6.0) buffer at 30° C. […] This is due to a structural difference between AB and lactose. In this way, it is expected that AB brought into the cell by LAC12 will be hydrolyzed by LAC4.

parent D452-2 [5] = experiment: Intracellular AB uptake in minimal medium, control strain; format: cell-based, S. cerevisiae; settings: minimal medium (Verduyn), without carbon source, FIG. 4D
Protocol: To confirm the possibility that, when a carbon source that may be consumed by a transporter is provided, AB is consumed together or AB is uptaken into the cell by producing energy from the carbon source, […], and then AB consumption experiments were performed for D452-2-L12 and parent D452-2 as a control. As a result, both when glucose (FIG. 4B) was provided and when galactose (FIG. 4C) was provided, only D452-2-L12 was able to consume AB and produced ABol. […] Therefore, D452-2-L12 was able to consume AB by LAC12.

D452-2-L124 = experiment: Cell growth inhibition according to AB concentration; format: cell-based, S. cerevisiae
Description: (§1) An experiment for confirming the growth inhibition effect is as follows. […] This is because an increase in AB concentration causes a glucose (carbon source) consumption rate to be decreased (FIG. 6B).

D452-2-L12 [6] = experiment: as above; format: cell-based, S. cerevisiae; settings: 20 g/L glucose
Description: as §1

parent D452-2 [7] = experiment: as above; format: cell-based, S. cerevisiae; settings: 20 g/L glucose
Description: as §1

Streptococcus mutans = settings: reported; cited from earlier work
[8] = AB 0, 10, 20, 50 g/L, minimal medium, 30° C., FIG. 6A

With `OC[C@H]1O[C@@H](O[C@H]2[C@H]3OC[C@@H]2OC(O)[C@H]3O)[C@H](O)[C@@H](O)[C@H]1O` (mixture of isomers) [AB, agarobiose] the “AB consumption from medium” value (D452-2-L12 [1]) was “intracellularly consumed AB”, the “thermal stability, degree of denaturation over time” value (“thermal stability … over time” below) [2] was “denatured over time at 50 °C or more” and the “reactivity with AR” value [3] was “converted into ABol by AR”. For the same compound, the AB hydrolysis ([4]; coenzyme from D452-2-L124 0.5 g/L, sodium acetate pH 6.0, 30° C., FIG. 5) was “best hydrolyzed”, the AB hydrolysis ([4]; coenzymes from strains not expressing LAC4 (D452-2-L12 and parent D452-2), pH 6.0, 30° C.) was “hardly hydrolyzed” and the “reactivity to β-galactosidase compared with lactose” value ([4]; coenzyme 0.5 g/L, pH 6.0, 30° C.) was “less reactive”. For the same compound, the “AB consumption from medium” value (parent D452-2 [5]) was “did not decrease”, the “specific growth rate as AB concentration increased” value (D452-2-L124; AB 0, 10, 20, 50 g/L, 20 g/L glucose, minimal medium, 30° C., FIG. 6A) was “most sharply decreased” and the growth (D452-2-L124; AB concentration 50 g/L, 20 g/L glucose) was “did not grow”. For the same compound, the “glucose (carbon source) consumption rate on increase in AB concentration” value (D452-2-L124; each strain showed a tendency similar to the specific growth rate, FIG. 6B) was “decreased”, the “specific growth rate as AB concentration increased” value (D452-2-L12 [6]; [8]) was “decreased as the AB concentration increased” and the growth (D452-2-L12 [6]; AB concentration 50 g/L) was “did not grow”. The “specific growth rate as AB concentration increased” value (parent D452-2 [7]; [8]) was “not affected until the AB concentration was 20 g/L” and the growth (parent D452-2 [7]; AB concentration 50 g/L) was “slowly grew afterward”.

With `OC[C@@H](O)[C@@H]1OC[C@H](O)[C@H]1O[C@@H]1O[C@H](CO)[C@H](O)[C@H](O)[C@H]1O` [ABol, agarobititol] the “thermal stability … over time” value [2] was “very stable without being denatured even at 70 °C”.

In the case of `O=C[C@@H](O)[C@@H]1OC[C@H](O)[C@H]1O` [L-AHG, 3,6-anhydro-L-galactose], the “thermal stability … over time” value [2] is listed as “denatured over time at 50 °C or more”, the “reactivity with AR” value [3] is listed as “then with L-AHG” and the antibacterial effect (Streptococcus mutans) is listed as “antibacterial effect”.

With `OC[C@@H](O)[C@@H]1OC[C@H](O)[C@H]1O` [L-AHGol, 3,6-anhydro-L-galactitol] the “thermal stability … over time” value [2] was “very stable without being denatured even at 70 °C”.

For `O=C[C@H](O)[C@@H](O)[C@H](O)CO` [xylose], the “reactivity with AR” value [3] was “reacted best”.
